Test results taken from patent publication US12421269B2, “SGLT2/DPP4 inhibitor and application thereof” (CGeneTech (Suzhou, China) CO., Ltd., priority 2019, dated 2025).
Marks after values point to notes of the source that are not given here.

Experiments:
Human-SGLT1 = molecular target: T1, Human-SGLT1 (Homo sapiens, UniProt P13866); experiment: SGLT1 glucose transport assay ([14C]-labeled glucose uptake); assay type: cell-based; conditions: cells stably expressing Human-SGLT1, 37° C., 2 hours
T1 sequence (P13866 1-664): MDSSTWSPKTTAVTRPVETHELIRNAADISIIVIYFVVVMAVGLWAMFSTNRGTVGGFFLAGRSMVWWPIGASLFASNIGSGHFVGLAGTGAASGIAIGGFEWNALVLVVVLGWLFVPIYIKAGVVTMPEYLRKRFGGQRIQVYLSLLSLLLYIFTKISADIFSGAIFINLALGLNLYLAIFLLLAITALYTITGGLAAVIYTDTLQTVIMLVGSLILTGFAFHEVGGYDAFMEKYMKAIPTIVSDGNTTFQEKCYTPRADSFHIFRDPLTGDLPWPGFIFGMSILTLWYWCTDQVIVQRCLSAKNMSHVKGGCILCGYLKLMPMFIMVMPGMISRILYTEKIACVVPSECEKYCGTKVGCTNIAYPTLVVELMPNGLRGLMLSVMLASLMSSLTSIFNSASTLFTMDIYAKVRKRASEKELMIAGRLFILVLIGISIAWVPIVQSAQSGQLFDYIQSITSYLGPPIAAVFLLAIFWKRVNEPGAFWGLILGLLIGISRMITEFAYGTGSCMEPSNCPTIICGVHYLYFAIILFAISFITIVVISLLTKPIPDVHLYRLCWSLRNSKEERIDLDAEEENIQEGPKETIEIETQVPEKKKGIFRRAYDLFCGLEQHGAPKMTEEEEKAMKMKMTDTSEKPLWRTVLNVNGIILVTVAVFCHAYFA
Procedure: To test the effect of compounds on the glucose transport activity of SGLT1 transporters by measuring the amount of [^14C]-labeled glucose entering highly expressed Human-SGLT1 cells.
The cells stably expressing Human-SGLT1 used for the experiments were constructed by WuXi AppTec Shanghai. The SGLT1 cells were plated in Cytostar-T (PerkinElmer) 96-well cell culture plates and cultured overnight at 5% CO2, 37° C.
(§1) Experimental buffer: 10 mM 4-hydroxyethylpiperazine ethanesulfonic acid (HEPES), 1.2 mM magnesium chloride (MgCl2), 4.7 mM potassium chloride (KCl), 2.2 mM calcium chloride (CaCl2) and 120 mM sodium chloride (NaCl).
The compounds were diluted with 100% dimethyl sulfoxide (DMSO) at a starting concentration of 1 mM, 8 points of 5-fold serial gradient dilution was made.
3 μM [^14C]-labeled methyl α-D-glucopyranoside (Methyl a-D-glucopyranosid) was prepared with experimental buffer.
Cells were treated with 49 μL of experimental buffer, 1 μL of gradient-diluted compound and 50 μL of 3 μM [^14C]-isotope-labeled glucose solution at 37° C. for 2 hours.
Readings were taken with an isotope detector (Micro beta Reader).
The data were calculated by GraphPad Prism 5.0 software using the formula: log(inhibitor) vs. response—Variable slope to obtain the IC50 values of the tested compounds, and the experimental results are shown in Table 5.

[1] = molecular target: recombinant human dipeptidyl peptidase 4 (rhDPP4) (Homo sapiens, UniProt P27487); experiment: rhDPP4 inhibitor screening experiment; assay type: biochemical; conditions: Gly-Pro-aminofluorescein substrate, 1 hour at room temperature
recombinant human dipeptidyl peptidase 4 (rhDPP4), sequence (P27487 whole entry): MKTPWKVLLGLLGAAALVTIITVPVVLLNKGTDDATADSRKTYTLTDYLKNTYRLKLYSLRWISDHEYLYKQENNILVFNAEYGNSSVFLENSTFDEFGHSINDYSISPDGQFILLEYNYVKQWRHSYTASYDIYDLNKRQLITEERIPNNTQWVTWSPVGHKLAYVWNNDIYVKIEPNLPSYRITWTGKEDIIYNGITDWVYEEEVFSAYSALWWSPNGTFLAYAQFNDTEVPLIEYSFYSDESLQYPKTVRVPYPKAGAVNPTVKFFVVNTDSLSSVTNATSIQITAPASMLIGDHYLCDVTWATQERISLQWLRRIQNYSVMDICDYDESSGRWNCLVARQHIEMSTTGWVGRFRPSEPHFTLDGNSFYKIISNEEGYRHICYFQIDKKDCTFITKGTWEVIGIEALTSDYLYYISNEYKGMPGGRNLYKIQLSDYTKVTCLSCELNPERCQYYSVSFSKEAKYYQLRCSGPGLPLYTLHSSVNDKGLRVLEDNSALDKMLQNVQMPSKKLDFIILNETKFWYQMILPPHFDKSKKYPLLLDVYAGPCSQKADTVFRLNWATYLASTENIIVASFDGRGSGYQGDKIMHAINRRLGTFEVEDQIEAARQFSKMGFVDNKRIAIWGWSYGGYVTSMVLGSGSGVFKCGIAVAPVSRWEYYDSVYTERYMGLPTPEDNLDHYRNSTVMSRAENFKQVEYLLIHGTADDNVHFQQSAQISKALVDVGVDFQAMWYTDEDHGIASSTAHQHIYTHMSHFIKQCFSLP
From the text: To evaluate the inhibitory activity of compounds against recombinant human dipeptidyl peptidase 4 (rhDPP4) by measuring the half-inhibitory concentration (IC50) values of the compounds. In the experiment, rhDPP4 was used to catalyze the generation of […] from substrate, the substrate was a luminescent precursor […], and the substrate and luciferase were reacted to generate a light signal, the intensity of the light signal was proportional to the enzyme activity.
• 1) The gradient diluted compounds (4-fold fold-dilution, 10 assay concentrations) were transferred 250 nL into a 384-well plate (PerkingElmer-6007299) using a non-contact nano-acoustic pipetting system (ECHO), and dimethyl sulfoxide (DMSO) concentration was 0.5% in the final reaction system. Blank control wells (containing DMSO, substrate and 10 mM Tris-HCl) and positive control wells (containing DMSO, substrate and rhDPP4) were set up. • 2) The pre-dispensed frozen buffer containing luciferase was removed and restored to room temperature, and then the substrate was added to configure a working solution with a substrate concentration of 20 μM. RhDPP4 was prepared as a working solution of 0.2 ng/mL using 10 mM Tris-HCl (pH 8.0) aqueous solution. • 3) 25 μL of working solution containing 20 μM substrate and 25 μL of working solution containing 0.2 ng/mL rhDPP4 were added to a 384-well plate with the addition of the compound, then the mixture was centrifuged for 30 s at 1000 rpm, the plate was sealed with aluminum foil sealing film and incubated for 1 hour at room temperature. • 4) The intensity of the light signal was detected by EnVision, a multifunctional microplate reader. The raw data were used to calculate the inhibition of rhDPP4 activity by the compound. % of inhibition activity=100−(compound well signal value−blank control well signal value)/(positive control well signal value−blank control well signal value)*100. • The percent of inhibition was imported into GraphPad Prism software for data processing to derive the corresponding dose-effect curves and to derive the IC50 values of the tested compounds.

Human-SGLT2 = molecular target: T2, Human-SGLT2 (Homo sapiens, UniProt P31639); experiment: SGLT2 glucose transport assay ([14C]-labeled glucose uptake); assay type: cell-based; conditions: cells stably expressing Human-SGLT2, 37° C., 2 hours
T2 sequence (P31639 1-672): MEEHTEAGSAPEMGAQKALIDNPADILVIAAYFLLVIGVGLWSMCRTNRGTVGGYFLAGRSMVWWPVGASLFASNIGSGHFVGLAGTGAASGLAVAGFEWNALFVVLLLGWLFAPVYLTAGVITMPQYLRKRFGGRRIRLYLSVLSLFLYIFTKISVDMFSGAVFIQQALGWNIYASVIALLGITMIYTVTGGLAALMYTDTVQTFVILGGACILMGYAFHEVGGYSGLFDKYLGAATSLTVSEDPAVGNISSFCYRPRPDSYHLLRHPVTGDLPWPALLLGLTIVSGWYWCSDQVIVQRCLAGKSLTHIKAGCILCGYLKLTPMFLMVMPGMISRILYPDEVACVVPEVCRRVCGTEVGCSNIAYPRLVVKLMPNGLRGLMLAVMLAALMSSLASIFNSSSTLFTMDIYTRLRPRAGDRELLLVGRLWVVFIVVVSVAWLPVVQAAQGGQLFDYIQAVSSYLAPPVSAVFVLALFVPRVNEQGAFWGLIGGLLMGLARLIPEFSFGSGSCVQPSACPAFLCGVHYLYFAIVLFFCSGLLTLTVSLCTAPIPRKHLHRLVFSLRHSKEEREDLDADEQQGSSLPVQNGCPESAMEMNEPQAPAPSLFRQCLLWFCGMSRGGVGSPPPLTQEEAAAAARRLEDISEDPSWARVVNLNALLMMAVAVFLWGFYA
Procedure: To test the effect of compounds on the glucose transport activity of SGLT2 transporters by measuring the amount of [^14C]-labeled glucose entering highly expressed Human-SGLT2 cells.
The cells stably expressing Human-SGLT2 used for the experiments were constructed by WuXi AppTec Shanghai. SGLT2 cells were plated in 96-well cell culture plates (Greiner) and cultured overnight at 5% CO2, 37° C.
as §1
Termination buffer: 10 mM 4-hydroxyethylpiperazine ethanesulfonic acid (HEPES), 1.2 mM magnesium chloride (MgCl2), 4.7 mM potassium chloride (KCl), 2.2 mM calcium chloride (CaCl2), 120 mM sodium chloride (NaCl) and 1 μM LX4211.
The compounds were diluted with 100% dimethyl sulfoxide (DMSO) at a starting concentration of 10 μM, 8 points of 5-fold serial gradient dilution was made.
6 μM [^14C]-labeled methyl α-D-glucopyranoside was prepared with experimental buffer.
Cells were treated with 49 μL of experimental buffer, 1 μL of gradient-diluted compound, and 50 μL of 6 μM [^14C]-isotope-labeled glucose solution at 37° C. for 2 hours.
The liquid in the wells was aspirated and the cells were washed 3 times with termination buffer.
The cells were lysed with 50 μL of 10% sodium hydroxide solution, and the cell lysate was aspirated into a scintillation tube, and 2 mL of scintillation solution was added.
Readings were taken with an isotope detector (Tricarb).
The data were calculated by GraphPad Prism 5.0 software using the formula: log (inhibitor) vs. response—Variable slope to obtain the IC50 values of the tested compounds, and the experimental results are shown in Table 5.

SD Rat = experiment: Oral glucose tolerance (OGTT) in rats; assay type: in vivo; conditions: male SD rats, single gavage dose, Canagliflozin 3 mg/kg, test compound 10 mg/kg
Procedure: The animals will be acclimatized in the animal room for 1 week after arrival at the facility.
The animals are fasted for 16 hours in the metabolic cage and given the drug or solvent (5 mL/kg) according to the table above, followed immediately by 50% glucose solution (2 g/kg, 4 mL/kg).
After 1 hour of glucose administration, the animals resumed feeding, and blood samples were collected at 0 min, 20 min, 40 min, 60 min, 90 min and 120 min for blood glucose measurement; urine at 0 to 24 hours was used for urinary glucose (mg/200 g) and urine volume test, respectively.
All values were expressed as mean values. Statistical analysis was performed using Graphpad Prism 6 single factor analysis of variance Tukey's multiple comparison test. The p-value less than 0.05 was considered statistically significant.

Row | Compound | IC50 (Human-SGLT1) | IC50 [1] | IC50 (Human-SGLT2) | OGTT blood glucose levels AUC0-2hr (SD Rat; glucose 2 g/kg) | Urinary glucose level (SD Rat; urine 0 to 24 hours) | Urine volume (SD Rat; urine 0 to 24 hours)
1 | CS[C@H]1O[C@@H](c2cc(C)c(Cl)c(Cc3ccc(OC4CCN([C@H]5CO[C@H](c6cc(F)ccc6F)[C@@H](N)C5)C4)cc3)c2)[C@H](O)[C@@H](O)[C@@H]1O (some centres unmarked) [WX004] | 33.3 nM | 166 nM | 5.96 nM | – | – | –
2 | Cc1ccc([C@@H]2O[C@H](CO)[C@@H](O)[C@H](O)[C@H]2O)cc1Cc1ccc(-c2ccc(F)cc2)s1 [Canagliflozin, reference compound] | – | – | – | 945 mmol/L/min | 1317**** mg/200 gBW | 24.4*** mL/200 gBW
3 | CS[C@H]1O[C@@H](c2cccc(Cc3ccc(OC4CCN([C@H]5CO[C@H](c6cc(F)ccc6F)[C@@H](N)C5)C4)cc3)c2)[C@H](O)[C@@H](O)[C@@H]1O (some centres unmarked) [WX005] | 28.5 nM | 116 nM | 5.05 nM | – | – | –
4 | COc1cc(F)c(Cc2ccc(O[C@@H]3CCN([C@H]4CO[C@H](c5cc(F)ccc5F)[C@@H](N)C4)C3)cc2)cc1[C@@H]1O[C@H](SC)[C@@H](O)[C@H](O)[C@H]1O [WX007] | 2070 nM | 32.5 nM | 19.7 nM | – | – | –
5 | CS[C@H]1O[C@@H](c2ccc(Cl)c(Cc3ccc(O[C@@H]4CCN([C@H]5CO[C@H](c6cc(F)ccc6F)[C@@H](N)C5)C4)cc3)c2C)[C@H](O)[C@@H](O)[C@@H]1O [WX003] | 980 nM | 112 nM | 332 nM | – | – | –
6 | CS[C@H]1O[C@@H](c2cc(Cc3ccc(O[C@@H]4CCN([C@H]5CO[C@H](c6cc(F)ccc6F)[C@@H](N)C5)C4)cc3)c(F)cc2C)[C@H](O)[C@@H](O)[C@@H]1O [WX008] | 521 nM | – | 7.39 nM | – | – | –
7 | CS[C@H]1O[C@@H](c2cc(Cc3ccc(O[C@@H]4CCN([C@H]5CO[C@H](c6cc(F)ccc6F)[C@@H](N)C5)C4)cc3)c(Cl)cc2C)[C@H](O)[C@@H](O)[C@@H]1O [WX002] | 187 nM | 104 nM | 4.84 nM | – | – | –
